Reference: ChEMBL document CHEMBL1144640, “Novel pyrazole derivatives as potent inhibitors of type II topoisomerases. Part 1: synthesis and preliminary SAR analysis” (Bioorg Med Chem Lett, 2007)
Converted amounts (≈) assume the structure as drawn.

What was measured:
[1] = test system: Escherichia coli; experiment: Antibacterial activity against Escherichia coli KL16; format: functional
[2] = test system: Streptococcus pneumoniae; experiment: Antibacterial activity against Streptococcus pneumonia ATCC 49619; format: functional
[3] = Inhibition of bacterial DNA gyrase; parameters: species or system Bacteria
[4] = test system: Staphylococcus aureus; experiment: Antibacterial activity against Staphylococcus aureus ATCC 13709; format: functional
[5] = Inhibition of bacterial topoisomerase 4; parameters: species or system Bacteria

Work on `COc1ccc2nccc(-n3cc4c(n3)CCC(NCc3ccc5c(c3)NC(=O)CS5)C4)c2n1` (stereo not given) yielded an MIC [1] of 1 µg/mL (≈ 2.12 µM), an MIC [2] of 2 µg/mL (≈ 4.23 µM) and an IC50 [3] of 0.25 µg/mL (≈ 0.529 µM). For the same compound, the MIC [4] was 0.25 µg/mL (≈ 0.529 µM) and the IC50 [5] was 0.016 µg/mL (≈ 0.0339 µM).

`COc1ccc2nccc(-n3cc4c(n3)CCC(NC(=O)c3ccc5c(c3)NC(=O)CS5)C4)c2n1` (stereo not given) gave an MIC [1] of 128 µg/mL (≈ 263 µM), an MIC [2] of 4 µg/mL (≈ 8.22 µM) and an IC50 [3] of 0.06 µg/mL (≈ 0.123 µM). It also gave an MIC [4] of 0.125 µg/mL (≈ 0.257 µM) and an IC50 [5] of 0.25 µg/mL (≈ 0.514 µM).

`COc1ccc2nccc(-n3cc4c(n3)CCC(NC(=O)c3ccc5c(c3)NC(=O)CS5)C4)c2c1` (stereo not given) showed an MIC [1] of 4 µg/mL (≈ 8.24 µM), an MIC [2] of 2 µg/mL (≈ 4.12 µM) and an IC50 [3] of 1 µg/mL (≈ 2.06 µM). It also gave an MIC [4] of 4 µg/mL (≈ 8.24 µM) and an IC50 [5] of 0.125 µg/mL (≈ 0.257 µM).

With `COc1ccc2nccc(-n3cc4c(n3)CC(NC(=O)c3ccc5c(c3)NC(=O)CS5)CC4)c2c1` (stereo not given) the MIC [1] was 8 µg/mL (≈ 16.5 µM), the MIC [2] was 4 µg/mL (≈ 8.24 µM) and the IC50 [3] was > 8 µg/mL. It also gave an MIC [4] of 8 µg/mL (≈ 16.5 µM) and an IC50 [5] of 0.5 µg/mL (≈ 1.03 µM).

Compound `COc1ccc2nccc(-n3cc4c(n3)CCC(NCc3ccc5c(c3)NC(=O)CS5)C4)c2c1` (stereo not given) has an MIC [1] of 2 µg/mL (≈ 4.24 µM), an MIC [2] of 0.5 µg/mL (≈ 1.06 µM) and an IC50 [3] of 0.25 µg/mL (≈ 0.53 µM). It also gave an MIC [4] of 0.25 µg/mL (≈ 0.53 µM) and an IC50 [5] of 0.03 µg/mL (≈ 0.0636 µM).

With `COc1ccc2nccc(-n3cc4c(n3)CCN(Cc3ccc5c(c3)OCCO5)C4)c2c1` the MIC [1] was > 128 µg/mL, the MIC [2] was > 128 µg/mL and the IC50 [3] was > 8 µg/mL. The MIC [4] was > 128 µg/mL.

Compound `COc1ccc2nccc(-n3cc4c(n3)CCC(NCc3ccc5c(c3)OCCO5)C4)c2c1` (stereo not given) has an MIC [1] of 64 µg/mL (≈ 145 µM), an MIC [2] of 0.5 µg/mL (≈ 1.13 µM) and an IC50 [3] of 2 µg/mL (≈ 4.52 µM). The MIC [4] was 0.5 µg/mL (≈ 1.13 µM) and the IC50 [5] was 0.06 µg/mL (≈ 0.136 µM).

For `COc1ccc2nccc(-n3ncc4c3CCC(NCc3ccc5c(c3)NC(=O)CS5)C4)c2c1` (stereo not given), the MIC [1] was > 128 µg/mL, the MIC [2] was > 128 µg/mL and the IC50 [3] was 2 µg/mL (≈ 4.24 µM). For the same compound, the MIC [4] was > 128 µg/mL.

In the case of `COc1ccc2nccc(-n3ncc4c3CCN(Cc3ccc5c(c3)OCCO5)C4)c2c1`, the MIC [1] is reported as > 128 µg/mL, the MIC [2] is reported as > 128 µg/mL and the IC50 [3] is reported as > 8 µg/mL. The MIC [4] was > 128 µg/mL.

`COc1ccc2nccc(-n3cc4c(n3)CCN(C(=O)c3ccc5c(c3)NC(=O)CS5)CC4)c2n1` showed an MIC [1] of 2 µg/mL (≈ 4.11 µM), an MIC [2] of 2 µg/mL (≈ 4.11 µM) and an IC50 [3] of 0.25 µg/mL (≈ 0.514 µM). The MIC [4] was 1 µg/mL (≈ 2.06 µM).

For `COc1ccc2nccc(-n3ncc4c3CCC(NCc3ccc5c(c3)OCCO5)C4)c2c1` (stereo not given), the MIC [1] was > 128 µg/mL, the MIC [2] was 32 µg/mL (≈ 72.3 µM) and the IC50 [3] was > 8 µg/mL. It also gave an MIC [4] of 16 µg/mL (≈ 36.2 µM).
